Measured values as given in publication PMC12138978, “Mu Opioid Receptor Positive Allosteric Modulator BMS-986122 Confers Agonist-Dependent G Protein Subtype Signaling Bias” (Biochemistry, 2025).
Where “and” joins values, the source holds several entries; their conditions need not be identical. Equal entries are not always repeated. Marks after values point to notes of the source that are not given here.

Assays:
[1] = tested on: human MOR signaling through different Gα subunits; test: nanoBRET assay, comparison or average across Gα subunits; assay type: cell-based; settings: for Average maximal increase in potency (EC50) caused by BMS-986122: average over Gα subunits, 10 μM BMS-986122
[2] = target: T1, MOR signaling through GαoB-i3ct (Homo sapiens, UniProt P35372); test: nanoBRET assay, MOR signaling through GαoB-i3ct chimera (data not shown); assay type: cell-based
T1 construct: expressed in transfected cells; host or cells: HEK 293T (inferred: same nanoBRET system)

[3] = target: T2, human MOR signaling through Gαz (Homo sapiens, UniProt P35372); assay type: cell-based
T2 construct: host or cells: HEK 293T, transient

human MOR = human MOR (Homo sapiens, UniProt P35372); test: [3H]naloxone competition binding, MOR-CHO cell membranes, low-affinity buffer; settings: fold change of Ki, vehicle vs 10 μM BMS-986122
Procedure: Chinese hamster ovary cells stably expressing the human MOR (MOR-CHO; obtained from Dr. George Uhl, NIDA Intramural Research Program, Baltimore, MD) were cultured in 10 cm dishes in Dulbecco’s modified Eagle’s medium (DMEM) supplemented with 5% fetal bovine serum and 100 U/mL penicillin–streptomycin at 37 °C in a 10% CO2 atmosphere. Cell membranes were isolated and homogenized as previously described, and membrane protein concentrations were determined with bovine serum albumin as the control as previously described. Membranes were stored at −80 °C until use.
[^3H]­Naloxone was used at a final concentration of 1.0 nM, and nonspecific binding was measured using 10 μM unlabeled naloxone. Membranes were added last to the incubation tube. All assays were performed at 25 °C and terminated by rapid vacuum filtration through Whatman #32 glass fiber filters using a Brandel cell harvester (Biomedical Research and Development Laboratories Inc., Gaithersburg, MD) followed by three ice-cold washes with 50 mM Tris-HCl, pH 7.4. Samples were collected and counted in 2 mL of Ecoscint A scintillation fluid (National Diagnostics, Atlanta, GA) for 2 min each using a LS 6500 scintillation counter (Beckman Coulter Inc., Fullerton, CA).
For competition binding experiments, the specific binding of the radioligand in the absence of other competing compounds was set at 100%. The percent of control binding was calculated for increasing concentrations of the competing compounds. A three- or four-parameter logistic curve was fit to the data by using SigmaPlot 11 (Systat Software Inc., San Jose, CA). […] Ki values were calculated as described previously. Statistical differences between Ki values were calculated using a two-tailed Student’s t test. Receptor binding data were reported as the mean Ki value ± SEM from three separate experiments performed in triplicate.

[4] = target: T3, human MOR signaling through GαoA, GαoB and Gαi3 (Homo sapiens, UniProt P35372); test: TruPATH BRET2 assay in HEK 293T cells compared with nanoBRET; assay type: cell-based; settings: GαoB and Gαi3, 10 μM BMS-986122, Student's t test
T3 construct: host or cells: HEK 293T, transient

[5] = target: human mu opioid receptor (MOR) (human) (UniProt P35372)
[6] = target: human mu opioid receptor (MOR) (human) (UniProt P35372); test: radioligand binding; competition with 1.0 nM [3H]naloxone on MOR-CHO cell membranes (50 ug membrane protein), in the presence of 10 uM BMS-986122; 60 min, 25 C; 50 mM Tris-HCl pH 7.4, 100 mM NaCl, 5 mM MgCl2, 1 mM EDTA, 1 mM DTT, 50 uM GDP (low-affinity buffer)
[7] = target: T4, human MOR signaling through Gαi2 (Homo sapiens, UniProt P35372); assay type: cell-based
T4 construct: host or cells: HEK 293T, transient

[8] = target: T5, human MOR signaling through Gαi1 (Homo sapiens, UniProt P35372); assay type: cell-based
T5 construct: host or cells: HEK 293T, transient

[9] = target: T6, human MOR signaling through GαoA (Homo sapiens, UniProt P35372); assay type: cell-based
T6 construct: host or cells: HEK 293T, transient

[10] = target: T7, human MOR signaling through GαoB (Homo sapiens, UniProt P35372); assay type: cell-based
T7 construct: host or cells: HEK 293T, transient

[11] = target: T8, human MOR signaling through Gαi3 (Homo sapiens, UniProt P35372); assay type: cell-based
T8 construct: host or cells: HEK 293T, transient

[12] = target: T9, human MOR signaling through Gαz with RGS20 (Homo sapiens, UniProt P35372); test: nanoBRET assay, MOR signaling through Gαz with RGS20 (RGSz1) coexpression; assay type: cell-based; settings: RGS20 coexpressed
T9 construct: host or cells: HEK 293T, transient

[13] = target: human mu opioid receptor (MOR) (human) (UniProt P35372); test: radioligand binding; competition with 1.0 nM [3H]naloxone on MOR-CHO cell membranes (50 ug membrane protein), vehicle; 60 min, 25 C; 50 mM Tris-HCl pH 7.4, 100 mM NaCl, 5 mM MgCl2, 1 mM EDTA, 1 mM DTT, 50 uM GDP (low-affinity buffer)

T4 sequence (P35372 whole entry): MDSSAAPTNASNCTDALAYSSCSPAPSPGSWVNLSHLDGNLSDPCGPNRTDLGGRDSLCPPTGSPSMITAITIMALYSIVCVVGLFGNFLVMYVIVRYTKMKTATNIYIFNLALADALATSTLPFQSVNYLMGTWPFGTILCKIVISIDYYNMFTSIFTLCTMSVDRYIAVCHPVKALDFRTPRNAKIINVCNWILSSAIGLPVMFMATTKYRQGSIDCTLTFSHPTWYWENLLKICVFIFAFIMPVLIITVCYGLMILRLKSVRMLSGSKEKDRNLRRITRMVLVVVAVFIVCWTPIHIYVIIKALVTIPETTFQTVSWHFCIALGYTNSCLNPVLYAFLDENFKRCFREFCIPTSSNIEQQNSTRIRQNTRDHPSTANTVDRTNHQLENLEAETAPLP
T4 sequence (P04899 2-355 partner limits assumed): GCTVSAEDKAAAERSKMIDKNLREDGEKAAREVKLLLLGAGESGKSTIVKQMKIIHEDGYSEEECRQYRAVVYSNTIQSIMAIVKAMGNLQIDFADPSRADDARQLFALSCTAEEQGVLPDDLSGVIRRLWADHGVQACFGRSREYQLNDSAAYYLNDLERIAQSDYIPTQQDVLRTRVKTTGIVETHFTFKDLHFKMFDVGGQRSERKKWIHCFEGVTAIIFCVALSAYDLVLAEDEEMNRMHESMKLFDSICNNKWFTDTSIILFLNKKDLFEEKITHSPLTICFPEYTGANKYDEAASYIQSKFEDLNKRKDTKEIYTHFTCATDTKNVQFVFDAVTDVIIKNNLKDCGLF
T6 sequence (P35372 whole entry): as the sequence (P35372 whole entry) above
T6 sequence (P09471 2-354 partner limits assumed): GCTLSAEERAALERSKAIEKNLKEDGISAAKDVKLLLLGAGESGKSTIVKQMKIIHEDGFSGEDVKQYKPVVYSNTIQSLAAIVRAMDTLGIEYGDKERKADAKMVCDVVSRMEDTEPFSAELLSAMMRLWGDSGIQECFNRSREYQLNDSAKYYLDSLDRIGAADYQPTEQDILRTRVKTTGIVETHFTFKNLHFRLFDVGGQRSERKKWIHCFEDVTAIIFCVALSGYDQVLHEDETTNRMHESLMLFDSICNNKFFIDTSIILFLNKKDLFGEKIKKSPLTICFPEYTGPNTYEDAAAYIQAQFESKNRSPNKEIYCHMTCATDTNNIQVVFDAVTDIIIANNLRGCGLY
T5 sequence (P35372 whole entry): as the sequence (P35372 whole entry) above
T5 sequence (P63096 2-354 partner limits assumed): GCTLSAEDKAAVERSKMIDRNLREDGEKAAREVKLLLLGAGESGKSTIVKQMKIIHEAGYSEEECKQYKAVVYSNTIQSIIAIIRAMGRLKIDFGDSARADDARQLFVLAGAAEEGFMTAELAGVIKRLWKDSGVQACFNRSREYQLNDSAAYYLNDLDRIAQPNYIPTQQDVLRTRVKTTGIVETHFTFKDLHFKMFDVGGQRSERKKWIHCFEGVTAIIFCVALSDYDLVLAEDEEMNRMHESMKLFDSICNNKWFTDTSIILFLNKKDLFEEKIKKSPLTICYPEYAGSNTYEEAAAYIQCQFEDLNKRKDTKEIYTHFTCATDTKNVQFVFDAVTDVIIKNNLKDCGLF
Sequence of human MOR (P35372 whole entry): as the sequence (P35372 whole entry) above
T7 sequence (P35372 whole entry): as above
T7 sequence (P09471 2-354 isoform P09471-2 partner limits assumed): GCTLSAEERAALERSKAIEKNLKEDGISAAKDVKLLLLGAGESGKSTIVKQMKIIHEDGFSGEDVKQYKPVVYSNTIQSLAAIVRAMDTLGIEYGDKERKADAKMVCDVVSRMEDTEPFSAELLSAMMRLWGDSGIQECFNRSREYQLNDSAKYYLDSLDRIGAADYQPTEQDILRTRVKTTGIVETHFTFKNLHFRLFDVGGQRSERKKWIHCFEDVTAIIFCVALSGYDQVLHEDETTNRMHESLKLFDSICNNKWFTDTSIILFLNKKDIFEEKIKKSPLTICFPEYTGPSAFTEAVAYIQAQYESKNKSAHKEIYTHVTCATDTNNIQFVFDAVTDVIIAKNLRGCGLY
Sequence of human mu opioid receptor (MOR) (human) (P35372 whole entry): as the sequence (P35372 whole entry) above
T2 sequence (P35372 whole entry): as above
T2 sequence (P19086 2-355 partner limits assumed): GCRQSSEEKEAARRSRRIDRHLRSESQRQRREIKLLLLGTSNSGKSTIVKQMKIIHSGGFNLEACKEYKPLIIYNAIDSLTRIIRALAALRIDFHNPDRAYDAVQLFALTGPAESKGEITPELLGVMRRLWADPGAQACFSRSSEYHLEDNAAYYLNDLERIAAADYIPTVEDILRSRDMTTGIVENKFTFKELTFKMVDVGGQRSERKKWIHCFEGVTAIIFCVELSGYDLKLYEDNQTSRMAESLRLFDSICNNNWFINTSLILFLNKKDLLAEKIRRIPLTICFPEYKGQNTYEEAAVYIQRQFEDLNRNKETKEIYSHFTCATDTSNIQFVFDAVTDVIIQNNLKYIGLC
T8 sequence (P35372 whole entry): as the sequence (P35372 whole entry) above
T8 sequence (P08754 2-354 partner limits assumed): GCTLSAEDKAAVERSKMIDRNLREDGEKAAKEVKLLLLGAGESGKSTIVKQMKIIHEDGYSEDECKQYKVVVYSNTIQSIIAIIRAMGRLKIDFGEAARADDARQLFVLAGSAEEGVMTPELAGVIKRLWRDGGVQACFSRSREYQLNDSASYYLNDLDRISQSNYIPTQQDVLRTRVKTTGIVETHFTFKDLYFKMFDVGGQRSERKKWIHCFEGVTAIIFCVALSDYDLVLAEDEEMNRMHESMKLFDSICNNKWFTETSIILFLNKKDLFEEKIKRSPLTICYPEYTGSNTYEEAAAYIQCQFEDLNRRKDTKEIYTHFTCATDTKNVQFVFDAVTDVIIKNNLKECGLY
T1 sequence (P35372 whole entry): as the sequence (P35372 whole entry) above
T9 sequence (P35372 whole entry): as above
T9 sequence (P19086 2-355 partner limits assumed): as the sequence (P19086 2-355 partner limits assumed) above
T3 sequence (P35372 whole entry): as the sequence (P35372 whole entry) above

Question: CSCC[C@H](NC(=O)[C@H](Cc1ccccc1)NC(=O)CNC(=O)CNC(=O)[C@@H](N)Cc1ccc(O)cc1)C(=O)O [Met-Enkephalin, methionine-enkephalin] was tested. Which “Average maximal increase in potency (EC50) caused by BMS-986122” value [1] did it give?
Answer: 3.8 fold

Question: With CC[C@@H]1CN2CC[C@@]3(O)C(=Nc4cccc(OC)c43)[C@@H]2C[C@@H]1/C(=C\OC)C(=O)OC [7-Hydroxymitragynine] as the molecule, how does the “Efficacy modulation by BMS-986122” value [2] read?
Answer: reduced

Question: What about the Intrinsic efficacy [2] of the same molecule?
Answer: increased substantially

Question: What about the Emax [3] of the same molecule?
Answer: 33 ± 3.0% and 65 ± 4.1%

Question: What about the “Ki (Veh)/Ki (BMS)” value (human MOR) of the same molecule?
Answer: 1.1 ns

Question: What about the “Δlog(τ) in TruPATH compared with nanoBRET” value [4] of the same molecule?
Answer: not statistically different

Question: How did the EC50, nanoBRET G protein activation in HEK 293T cells, MOR signaling through Gαi1, vehicle [5] turn out when “methionine-enkephalin (met-enkephalin) acetate (peptide)” was run?
Answer: 52 nM

Question: What about the EC50, nanoBRET G protein activation in HEK 293T cells, MOR signaling through Gαi1, with 10 μM BMS-986122 [5] of the same molecule?
Answer: 10 nM

Question: And the EC50, nanoBRET G protein activation in HEK 293T cells, MOR signaling through Gαi3, with 10 μM BMS-986122 [5]?
Answer: 8.7 nM

Question: What about the EC50, nanoBRET G protein activation in HEK 293T cells, MOR signaling through GαoA, vehicle [5] of the same molecule?
Answer: 53 nM

Question: What about the EC50, nanoBRET G protein activation in HEK 293T cells, MOR signaling through GαoB, vehicle [5] of the same molecule?
Answer: 53 nM

Question: And the EC50, nanoBRET G protein activation in HEK 293T cells, MOR signaling through GαoB, with 10 μM BMS-986122 [5]?
Answer: 14 nM

Question: What about the EC50, nanoBRET G protein activation in HEK 293T cells, MOR signaling through Gαz, with 10 μM BMS-986122 [5] of the same molecule?
Answer: 17 nM

Question: And the Ki [6]?
Answer: 48 nM

Question: How did the ΔpEC50 [3] turn out when C[C@@H](NC(=O)[C@@H](N)Cc1ccc(O)cc1)C(=O)NCC(=O)N(C)[C@@H](Cc1ccccc1)C(=O)NCCO [DAMGO, [D-Ala 2, N-MePhe 4, Gly-ol]-enkephalin] was run?
Answer: 0.529 ± 0.087

Question: And the ΔpEC50 [7]?
Answer: 0.712 ± 0.064

Question: What about the ΔpEC50 [8] of the same molecule?
Answer: 0.596 ± 0.023

Question: What about the “Ki (Veh)/Ki (BMS)” value (human MOR) of the same molecule?
Answer: 6.8 ****

Question: And the ΔpEC50 [9]?
Answer: 0.667 ± 0.022

Question: And the “Average maximal increase in potency (EC50) caused by BMS-986122” value [1]?
Answer: 4.5 fold

Question: What about the ΔpEC50 [10] of the same molecule?
Answer: 0.791 ± 0.109

Question: What about the ΔpEC50 [11] of the same molecule?
Answer: 0.467 ± 0.104

Question: Cc1ccccc1COc1ccc(C2C3=C(CC(C)(C)CC3=O)OC3=C2C(=O)CC(C)(C)C3)cc1 [BMS-986187] was tested. Which “ΔΔlog(τ)oB-i3” value ([1]; 7-hydroxymitragnine as agonist, 10 μM PAM, relative transduction coefficients compared between Gαi3 and GαoB) did it give?
Answer: 0.157

Question: Which results are given for COc1cc(Br)ccc1C1SCCN1S(=O)(=O)c1ccc(Cl)cc1 (stereo not drawn) [BMS-986124]?
Answer: Antagonism of the effect of 3 μM BMS-986122 on the potency of DAMGO [7]: antagonized the effect of 3 μM BMS-986122, but not completely; Antagonism of the effect of 3 μM BMS-986187 on the potency of DAMGO [7]: partially block the effect of 3 μM BMS-986187

Question: With CC(C)=CCN1CCC2(C)c3cc(O)ccc3CC1C2C (single isomer, unassigned; (-)) [(−)-Pentazocine] as the molecule, how does the Emax [3] read?
Answer: 105 ± 1.8% and 110 ± 6.7%

Question: What about the “Emax with RGS20 coexpression versus without” value [12] of the same molecule?
Answer: dramatically reduced

Question: And the Emax [7]?
Answer: 35 ± 2.0% and 66 ± 4.3%

Question: What about the Emax [8] of the same molecule?
Answer: 56 ± 1.4% and 105 ± 1.2%

Question: And the “Ki (Veh)/Ki (BMS)” value (human MOR)?
Answer: 1.0 ns

Question: And the Emax [9]?
Answer: 48 ± 2.2% and 88 ± 3.0%

Question: And the Emax [10]?
Answer: 74 ± 0.33% and 96 ± 2.6%

Question: What about the Emax [11] of the same molecule?
Answer: 70 ± 1.8% and 102 ± 1.8%

Question: With “[D-Ala 2, N-MePhe 4, Gly-ol]-enkephalin (DAMGO) acetate (peptide)” as the molecule, how does the EC50, nanoBRET G protein activation in HEK 293T cells, MOR signaling through Gαi1, vehicle [5] read?
Answer: 58 nM

Question: And the EC50, nanoBRET G protein activation in HEK 293T cells, MOR signaling through Gαi2, vehicle [5]?
Answer: 46 nM

Question: What about the EC50, nanoBRET G protein activation in HEK 293T cells, MOR signaling through Gαi2, with 10 μM BMS-986122 [5] of the same molecule?
Answer: 9.1 nM

Question: What about the EC50, nanoBRET G protein activation in HEK 293T cells, MOR signaling through Gαi3, vehicle [5] of the same molecule?
Answer: 24 nM

Question: And the EC50, nanoBRET G protein activation in HEK 293T cells, MOR signaling through Gαi3, with 10 μM BMS-986122 [5]?
Answer: 7.3 nM

Question: What about the EC50, nanoBRET G protein activation in HEK 293T cells, MOR signaling through GαoA, with 10 μM BMS-986122 [5] of the same molecule?
Answer: 10 nM

Question: What about the EC50, nanoBRET G protein activation in HEK 293T cells, MOR signaling through GαoB, vehicle [5] of the same molecule?
Answer: 74 nM

Question: And the EC50, nanoBRET G protein activation in HEK 293T cells, MOR signaling through GαoB, with 10 μM BMS-986122 [5]?
Answer: 11 nM

Question: And the EC50, nanoBRET G protein activation in HEK 293T cells, MOR signaling through Gαz, vehicle [5]?
Answer: 10 nM

Question: And the EC50, nanoBRET G protein activation in HEK 293T cells, MOR signaling through Gαz, with 10 μM BMS-986122 [5]?
Answer: 3.2 nM

Question: What about the Ki [13] of the same molecule?
Answer: 240 nM

Question: What about the Ki [6] of the same molecule?
Answer: 35 nM
